From patent US20050059615A1, “Transmucosal dosage forms for brain-targeted steroid chemical delivery systems” (priority 2003, published 2005)

System: ovariectomized female rats
Assay: Lordosis quotient, female rat sexual behavior after ovariectomy
Type: in vivo, Sprague Dawley rats
Method: Adult female Sprague Dawley rats (220-250 g) from Charles River Hungary Ltd., Godollo, Hungary, were used. Animals were kept in community cages (4 animals/cage) in a climate-controlled room (23∀2EC, 50-60% humidity), with a 14 hour light, 10 hour dark cycle of artificial lighting, using reversed light/dark cycle. Food and water were available ad libitum.
After a minimum five-day acclimatization period, animals were ovariectomized under ether anesthesia, then were left to recover for 3 weeks before testing (reconvalescence). All animals were treated in accordance with the guidelines of the European Communities Council Directive (86/609/EEC) and studies were permitted by the Institutional Animal Care Commission.
Estradiol benzoate and progesterone were obtained from Sigma Chemical Co. Inc., Budapest, Hungary. 2-Hydroxypropyl-β-cyclodextrin was purchased from Cerestar Inc., Hammond, Ind., US. […] E2-CDS as a 3% complex with HPβCD (E2-CDS-CD) was dissolved in distilled water and diluted with 27% HPβCD solution. E2-CDS-CD was synthesized by Alchem Laboratories Corporation, Alachua, Fla., US, using the procedure of Example 2 above.
After recovery from surgery, ovariectomized female rats were divided into four groups and treated once a day for five days intravenously, via a bolus injection through the tail vein, as follows: (1) control, 27% HPβCD solution; (2) 0.003 mg/kg E2-CDS dissolved in 27% HPβCD solution; (3) 0.01 mg/kg E2-CDS dissolved in 27% HPβCD solution; and (4) 0.03 mg/kg E2-CDS dissolved in 27% HPβCD solution. A minimal number of ovariectomized (8 to 12) females were used per group. Intravenous treatments either with E2-CDS or HPβCD (controls) were carried out daily for 5 days beginning 2 days prior to the first day of behavior observations, in a volume of 0.05 mL/100 g body weight.
The behavior test was conducted in a plexiglass observation cage during the dark cycle. During behavioral observations, only a dim red light was on.
An experienced and active male rat was placed in the arena 5 minutes prior to the female. […] The lordosis quotient (LQ) expresses the estrogen effect on sexual receptivity and was calculated as follows: LQ=100×number of lordoses/10 mounts The observation of the sexual behavior of each female was carried out, in the case of E2-CDS, every day for 22 days; in the case of EB, investigations were carried out every day for 10 days. […] Citrated blood samples were taken by retro-orbital sinus puncture under light ether anesthesia. The samples were stored at 4EC for one hour, then centrifuged at 1000 g for 10 minutes. Plasma was separated and stored at −80EC until assayed. Plasma LH concentrations from individual samples were measured by double antibody radioimmunoassay kits obtained from Amersham Pharmacia Biotech, Rome, Italy. […] The limit of detection was 15 pg/mL.
Behavioral changes were analyzed using the Mann-Whitney U test (Siegel, Nonparametric Statistics for the Behavioral Sciences, New York; McGraw-Hill Book Company, Inc., 1956). The Fisher exact test was used for percentage comparisons (Zar, Biostatistical Analysis, Prentice Hall, Inc., Englewood Cliffs, N.J., 1974). Serum LH data were analyzed for each time and treatment group by analysis of variance (ANOVA) followed by Bonferroni posthoc test.

[1] = 0.003 mg/kg i.v. once a day for 5 days
[2] = 0.01 mg/kg i.v. once a day for 5 days
[3] = 0.03 mg/kg i.v. once a day for 5 days

CN1C=CCC(C(=O)O[C@H]2CC[C@H]3[C@@H]4CCc5cc(O)ccc5[C@H]4CC[C@]23C)=C1 [E2-CDS, 17β-[(1-methyl-1,4-dihydro-3-pyridinyl)carbonyloxy]estra-1,3,5(10)-trien-3-ol]
effect on lordosis quotient [1]: slightly enhanced
period of the LQ effect [1]: 3 to 18 days
statistical significance of LQ effect [1]: not statistically significant
day till which the LQ increase lasted (not statistically significant after day 11) [2]: 15 days
effect on lordosis quotient LQ [2]: significantly enhanced
period of the LQ effect [2]: day 5 to day 11
effect on lordosis quotient LQ [3]: significantly enhanced
maximal value of lordosis quotient (LQ) [3]: 73
period over which the LQ effect lasted [3]: day 3 to day 18
